# Experimental data from patent publication US7384961B2, “Saturated and unsaturated heteroarylcycloalkylmethyl amines as anti-depressants” (priority 2002, dated 2008).
# Marks after values point to notes of the source that are not given here.
# Assays:
# NA re-uptake = target: T1, NA re-uptake (Rattus norvegicus, UniProt Q63380); experiment: Inhibition of NA re-uptake in rat brain synaptosomes (P2 fraction, hypothalamus); type: biochemical; conditions: 10 μmol/l
# T1 construct: synaptosomes are freshly isolated from rat brain areas; from tissue; host or cells: rat brain synaptosomes (P2 fraction), hypothalamus
# Description: (§1) a) Investigations of the Inhibition of the Re-uptake of 5-HT and NA
# (§2) In order to be able to carry out these in vitro studies, synaptosomes are freshly isolated from rat brain areas. […] These vesicular particles are isolated from the hypothalamus for the NA re-uptake and from the medulla +pons region of male rat brains for the 5-HT re-uptake.
# (§3) The IC50 values were obtained with the aid of the “Figure P” computer program (version 6.0, Biosoft, Cambridge, England). […] The “Ligand” computer program (version 4, Biosoft, England) was used to obtain KD values.
# mice [1] = experiment: Formalin test in mice (analgesic action, chronic pain component); type: in vivo; conditions: for ED50: Mus musculus, read-out: Inhibition of the nociceptive behaviour versus control, ED50 value
# Protocol: b) Investigations of the Analgesic Actions in the Formalin Test in Mice
# The formalin test (Dubuisson, D. and Dennis, S. G., 1977, Pain, 4, 161-174) represents a model of acute and chronic pain. The chronic pain component was evaluated in the investigations described here.
# A biphase nociceptive reaction which is recorded by observing three behaviour patterns which can be clearly differentiated from one another is induced in freely mobile test animals by a single formalin injection into the dorsal side of a hind paw.
# Formalin is administered subcutaneously into the dorsal side of the right hind paw of each animal in a volume of 20 μl and a concentration of 1%.
# The specific changes in behaviour which differ from the normal behaviour (score 0), such as raising (score 1) and shaking the paw (score 2) and biting and licking reactions (score 3), are observed and recorded continuously at component intervals of 3 min for up to 60 min after the administration of formalin. The changes in behaviour are weighted in different ways (score 0-3) and a pain rate (PR) is calculated using the following formula: PR=[(T0×0)+(T1×1)+(T2×2)+(T3×3)]/180.
# The group size is 10 animals (n=10).
# On the basis of the PR calculations, the action of the substance was determined as the change from a control in percent. The ED50 was determined by means of regression analysis.
# mice [2] = experiment: Isolation-induced pup vocalization test in mice; type: in vivo; conditions: for ED50: sc, read-out: Change in vocalization frequency versus control, ED50 value
# Protocol: d) Investigation of the Anxiolytic Action in the Isolation-Induced Pup Vocalization Test in Mice
# The isolation-induced pup vocalization test in mice was used to investigate anxiolytic actions (Fish, E. W., Sekinda, M., Ferrari, P. F., Dirks, A., Miczek, K. A., Psychopharmacology, vol. 149, p. 277-285, (2000)). Litters of 7 to 13 mice were used for the testing. At the age of 7 days the animals were separated from the mother and placed in an incubation cage with an internal temperature of approx. 34° C. For determination of the vocalizations in the ultrasonic range, the animals were placed individually on a temperature-controlled platform (23 cm×23 cm, divided by a grid into fields of 2 cm×2 cm, 19±1° C.) of a soundproofed test chamber for a duration of 30 sec. The ultrasonic vocalizations were recorded with a high-frequency capacitor microphone, filtered, amplified, digitalized and plotted and analysed using commercial software. Only animals with pre-values of at least 6 vocalizations within 30 sec and a body weight of 3.5 to 5.5 g were employed for the testing. After subcutaneous (s.c.) injection of substance or vehicle, the animals were returned to the incubation cage for a duration of 10 min and then placed individually again on the temperature-controlled plate of the test chamber for a duration of 4 min. In addition to the number of vocalizations, crossings of the grid of the plate and body turns of the mice were determined to investigate influences of the substance on locomotor activity and coordination. Changes in the vocalization frequencies, crossings of the grid and body turns were stated relative to the vehicle control. A reduction in the vocalization frequency is described for anxiolytics.
# mice [3] = experiment: Forced swimming test (Porsolt test) in mice; type: in vivo; conditions: for Change in immobility phase versus control: 2.15 mg/kg i.p., mice
# Protocol: c) Investigation of the Antidepressant Action in the Forced Swimming Test (Porsolt Test) in Mice
# The investigations to determine the antidepressant action of the compounds of the formula I according to the invention were carried out in the forced swimming test (Porsolt test) in mice (Porsolt, R. et al., Arch. Int. Pharmacodyn. vol. 229, p. 327-336, (1977)). Male mice (20-25 g body weight) were placed individually for a period of 6 minutes in a shallow bowl of water from which they were unable to escape and were therefore forced to swim. After some time the animals gave up their swimming attempts and passed into an immobility phase. The duration of the immobility phase in the interval of 2-6 minutes after introduction of the animals was determined. The substance and vehicle groups each comprise 10 animals. Changes in the duration of the immobility phase are stated relative to the vehicle control. Differences versus the vehicle control are tested for significance with the aid of the Student's T test. Antidepressants induce a shortening of the immobility phase.
# 5-HT re-uptake = target: T2, 5-HT re-uptake (Rattus norvegicus, UniProt P31652); experiment: Inhibition of 5-HT re-uptake in rat brain synaptosomes (P2 fraction, medulla + pons); type: biochemical; conditions: 10 μmol/l
# T2 construct: synaptosomes are freshly isolated from rat brain areas; from tissue; host or cells: rat brain synaptosomes (P2 fraction), medulla + pons region, male rats
# Description: as §1, §2, §3
# T1 sequence (Q63380 1-617): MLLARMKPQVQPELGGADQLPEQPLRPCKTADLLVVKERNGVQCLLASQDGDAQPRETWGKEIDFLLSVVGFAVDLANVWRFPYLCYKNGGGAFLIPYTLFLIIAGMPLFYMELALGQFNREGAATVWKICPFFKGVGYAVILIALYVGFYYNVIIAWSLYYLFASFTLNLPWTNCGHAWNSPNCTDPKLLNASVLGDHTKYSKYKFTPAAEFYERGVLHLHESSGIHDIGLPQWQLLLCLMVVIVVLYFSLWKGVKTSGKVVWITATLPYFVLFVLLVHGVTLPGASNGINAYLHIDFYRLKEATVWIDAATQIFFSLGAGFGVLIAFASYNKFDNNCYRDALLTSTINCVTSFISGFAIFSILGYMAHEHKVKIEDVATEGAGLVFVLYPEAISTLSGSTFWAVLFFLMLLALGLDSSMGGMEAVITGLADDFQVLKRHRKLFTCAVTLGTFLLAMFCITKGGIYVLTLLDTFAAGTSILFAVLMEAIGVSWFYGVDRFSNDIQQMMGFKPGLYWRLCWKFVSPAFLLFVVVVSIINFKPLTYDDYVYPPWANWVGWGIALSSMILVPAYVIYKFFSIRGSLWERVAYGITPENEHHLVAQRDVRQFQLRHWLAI
# T2 sequence (P31652 whole entry): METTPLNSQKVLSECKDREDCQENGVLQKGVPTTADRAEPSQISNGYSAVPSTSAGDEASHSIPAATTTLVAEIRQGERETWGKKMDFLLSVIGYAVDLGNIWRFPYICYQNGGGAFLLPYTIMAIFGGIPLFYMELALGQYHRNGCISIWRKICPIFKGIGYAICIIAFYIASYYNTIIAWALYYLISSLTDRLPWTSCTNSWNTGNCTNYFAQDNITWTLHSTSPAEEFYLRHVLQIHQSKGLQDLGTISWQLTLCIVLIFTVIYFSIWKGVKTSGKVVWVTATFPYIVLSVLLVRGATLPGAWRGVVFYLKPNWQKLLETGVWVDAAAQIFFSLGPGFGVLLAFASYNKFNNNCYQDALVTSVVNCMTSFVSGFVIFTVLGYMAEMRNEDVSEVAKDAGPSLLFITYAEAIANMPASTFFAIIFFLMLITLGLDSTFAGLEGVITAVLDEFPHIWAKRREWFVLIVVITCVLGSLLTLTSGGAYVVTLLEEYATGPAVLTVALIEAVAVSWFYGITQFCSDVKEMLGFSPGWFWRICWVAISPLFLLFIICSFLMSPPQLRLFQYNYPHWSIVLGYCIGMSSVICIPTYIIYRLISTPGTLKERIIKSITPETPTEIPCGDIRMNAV
smiles,measurement,setting,value
"COc1ccc(C(CN(C)C)C2(O)CCCCC2)cc1 (stereo not shown) [venlafaxine, reference compound]",inhibition at 10 µM,NA re-uptake,92%
same,ED50,mice [1]; iv,2.6 mg/kg
same,ED50,mice [2]; Mus musculus,8.1 mg/kg
same,"Change in body turns, maximum change",mice [2]; dose range 0.3-56 mg/kg s.c.,+141% (n.s.)
same,"Change in grid crossings, maximum change",mice [2]; dose range 0.3-56 mg/kg s.c.,+92% (n.s.)
same,Change in immobility phase versus control,mice [3],−66%***
"CN(C)CCCC1(c2ccc(F)cc2)OCc2cc(C#N)ccc21 (stereo not shown) [Citalopram, citalopram]","Change in body turns, maximum change",mice [2]; dose range 0.56-10 mg/kg s.c.,+397% (s.)
same,"Change in grid crossings, maximum change",mice [2]; dose range 0.56-10 mg/kg s.c.,+66% (n.s.)
same,ED50,mice [2]; mouse pups,1.2 mg/kg
"CN(C)CC1=C(c2cccnc2)CCCC1.Cl.Cl [Example 1, Dimethyl-(2-pyridin-3-yl-cyclohex-1-enylmethyl)amine dihydrochloride]",inhibition at 10 µM,NA re-uptake,35%
same,ED50,mice [1]; iv,1.66 mg/kg
same,Inhibition of the nociceptive behaviour (in words),mice [1]; formalin test in mice,dose-dependent inhibition of the nociceptive behaviour
same,"Change in body turns, maximum change",mice [2]; dose range 1.0-17 mg/kg s.c.,+233% (n.s.)
same,"Change in grid crossings, maximum change",mice [2]; dose range 1.0-17 mg/kg s.c.,+32% (n.s.)
same,Changes in the crossings of the grid and body turns (in words),mice [2]; locomotion and coordination,no significant changes in the crossings of the grid and body turns
same,Reduction in the vocalization frequency (in words),mice [2]; pup vocalization test,significant reduction in the vocalization frequency
same,ED50,mice [2]; mouse pups,1.7 mg/kg
same,inhibition at 10 µM,5-HT re-uptake,83%
same,Change in immobility phase versus control,mice [3],−54%***
same,Shortening of the immobility phase (in words),mice [3]; forced swimming test in mice,significant shortening of the immobility phase
"CNCC[C@H](Oc1cccc2ccccc12)c1cccs1 [duloxetine, reference compound]",ED50,mice [1]; ip,6.69 mg/kg
same,Change in immobility phase versus control,mice [3],−41%**
